One may read the Vdss as the apparent volume that relates the amount in the body to the concentration in plasma or blood.

Read-outs that look alike come from different tables or passages of the source. Numbered stars: 1 amine (or outer) side, 2 acyl side, 3 side chain; on linkers, the order of the positions; unused ones are H or OH. Bridge positions count the residues as written; N and C are the ends. Square brackets hold non-standard residues; d marks the D form. Peptide text beside a SMILES is read from it. * marks the point of attachment. hTyr(3S-OH,4S-OH,3'-OSO3H) = N[C@H](C(=O)O)[C@H](O)[C@@H](O)c1ccc(O)c(OS(=O)(=O)O)c1; Orn(4R-OH,5R-OH) = O=C([C@H](C[C@@H](O)[C@@H](O)N[*:3])N[*:1])[*:2]; Pro(3S-OH,4S-Me) = C[C@H]1CN[C@H](C(=O)O)[C@H]1O; X1 = CCCCCOc1ccc(-c2cc(-c3ccc(C(=O)*)cc3)no2)cc1; Gln(3R-OH) = NC(=O)C[C@@H](O)[C@H](N)C(=O)O; Hyp = O=C(O)[C@@H]1C[C@@H](O)CN1

The format of data set [1] is in vivo, human (preterm neonates).
Data set [2] has as its system central nervous system infections. As to conditions: neutropenic rabbits; cited from earlier work.
For data set [3] the following is noted: cited from earlier work.
Data set [4] is classed as in vivo, human (preterm neonates). The note with it: 15 mg/kg/day IV.
The conditions of data set [5]: cited from earlier work. This is another data set of the same source.
The mark [6] stands for this setting: 12 neonates, 15 mg/kg/day IV for 5 days, not felt related to micafungin.
The mark [7] stands for this setting: neonates <1000 grams (n=7), mean (SD), SD.
[8] abbreviates: neonates ≥1000 grams (n=5), mean (SD), SD.

Turning to `CCCCCOc1ccc(-c2cc(-c3ccc(C(=O)N[C@H]4C[C@@H](O)[C@@H](O)NC(=O)[C@@H]5[C@@H](O)[C@@H](C)CN5C(=O)[C@H]([C@H](O)CC(N)=O)NC(=O)[C@H]([C@H](O)[C@@H](O)c5ccc(O)c(OS(=O)(=O)O)c5)NC(=O)[C@@H]5C[C@@H](O)CN5C(=O)[C@H]([C@@H](C)O)NC4=O)cc3)no2)cc1` [micafungin] (X1-[Orn(4R-OH,5R-OH)]T[Hyp][hTyr(3S-OH,4S-OH,3'-OSO3H)][Gln(3R-OH)][Pro(3S-OH,4S-Me)]; lactam 1-C), the “reported AE: hypochloremia” value in data set [1] (setting [6]) was determined as 33%. In addition, the “reported AE: hypokalemia” value in data set [1] (setting [6]) is on record as 25%. Further, the “reported AE: hyponatremia” value in data set [1] (setting [6]) worked out at 42%. In addition, in data set [1] (setting [6]), the “reported AE: monocytosis” value came out at 25%. The “renal toxicity and changes in hematology parameters” value in data set [1] (12 neonates, baseline vs end of therapy) is given as “No evidence of renal toxicity or significant changes in hematology parameters”. In addition, the deaths entry in data set [1] (12 neonates, 3 days after completing the course of micafungin) is “One 540 g neonate died on day of life 11 from necrotizing enterocolitis”. Further, the “Potassium, after 5th dose” value in data set [1] (median (IQR), prior to 1st dose 4.0 (3.4, 4.4), P 0.03) worked out at 4.6 mmol/L. In addition, the “treatment of central nervous system infections” value in data set [2] is reported as “Successful treatment”. Besides, the “mean CL” value in data set [3] (18 neonates > 1000 g, single IV dose 0.75, 1.5 or 3.0 mg/kg) is 0.65 mL/min/kg. The CL in data set [3] (neonates < 1000g, single dose 0.75 mg/kg, data from 4 patients) is 1.32 mL/min/kg; in data set [5] (adults), 0.16 mL/min/kg; in data set [5] (children ages 2–8 years), 0.38 mL/min/kg; in data set [5] (children ages 9–17 years), 0.28 mL/min/kg. The “Vdss in neonates from the previous study” value in data set [3] (single-dose study in neonates) is on record as 0.44 L/kg. The “highest observed AUC0–24” value in data set [4] (preterm neonates, maximum of n=12) worked out at 555.6 µg·h/mL. Moreover, the Vdss in data set [4] (setting [7]) is recorded as 1.637(0.657) L/kg; in data set [4] (setting [8]), 1.344(0.141) L/kg; in data set [4] (whole cohort n=12, weight-normalized, mean (SD), SD), 1.515(0.516) L/kg; in data set [5] (adult studies) it was 0.26 L/kg. In addition, the values for the Vdβ in data set [4] (setting [7]) and in data set [4] (setting [8]) were 0.636(0.370) L/kg and 0.581(0.106) L/kg, respectively. Moreover, in data set [4] (whole cohort n=12, mean (SD), SD), the “Vdβ, volume of distribution in the elimination phase” value was 0.613(0.282) L/kg. The Cmax in data set [4] (whole cohort n=12, obtained directly from the data, mean (SD), SD) is 38.4(8.8) ug/mL. The “average AUC” value in data set [5] (adults, 150 mg dose) was 166.7 µg·h/mL.

(Values after publication PMC2747507 (The Pediatric infectious disease journal, 2009).)
